Assay results as given in paper PMC6377964 (Evidence-based Complementary and Alternative Medicine : eCAM, 2019).
Several values for one entry are separate records, joined by “and”; a condition that tells them apart may be missing. Equal values may be shown once. Read-outs that look alike come from different tables or passages of the source.

How the values were obtained:
[1] = orally administered; cited from earlier work
[2] = Kinetic profiles of administered and generated stereoisomers in brain, CSF and plasma of rats after oral administration; type: in vivo, male Sprague-Dawley (SD) rats; conditions: for Cmax, brain / AUC0-180 min, brain: rat brain; for AUC(0-t) / Cmax / half-life / Kp / Tmax: male, Sprague-Dawley, po; for half-life: read-out: t 1/2, plasma; for Kp / Tmax: rat; for Tmax: plasma
From the text: Male Sprague-Dawley (SD) rats were provided by the Laboratory Animal Service Center of The Chinese University of Hong Kong, Hong Kong, China. Animals were housed in cages during the study period under standard conditions of temperature, humidity, and light. All animal experiments were approved by the Animal Ethics Committee of The Chinese University of Hong Kong.
One day before the experiment, the male SD rats (160-200 g) were fasted overnight with free access to water. […] The dosage was the same as used in the previous pharmacodynamics studies. […] The rats were exsanguinated by cardiac puncture under anesthesia, followed by collecting their CSF (about 100 μL) through a single puncture in the cisterna magna. Plasma was obtained by centrifugation of blood at 6,000 × g for 8 min at 4°C. After blood collection, the animals were perfused transcardially with normal saline until total blood volume was removed. Then, the whole brain was promptly collected, and the surface water was blotted dry with Kimwipes (Kimberly-Clark™). Blood vessels and meninges were carefully removed with forceps and the brain was weighted. All samples were stored at −20°C until analysis.
Brain homogenate was freshly prepared by homogenizing brain tissues in normal saline (1:2, w/v). Homogenization was conducted in an ice bath using the IKA T10 basic ULTRA-TURRAX Homogenizer for 20–30 s.
The biological samples including brain homogenate, CSF, and plasma (50 μL each) were deproteinized by adding 150 μL of acetonitrile (containing 20 ng/mL IS). After vortex mixing for 1 min, the mixture was centrifuged (20,000 × g) for 10 min at 4°C. After centrifugation, an aliquot (5 μL) of supernatant was subjected to the LC-MS/MS analysis.
The chromatographic separation was achieved on ZORBAX Eclipse Plus C18 column (2.1 × 100 mm, 1.8 μm, Agilent) maintained at 40°C temperature at a flow rate of 0.3 mL/min. A gradient mobile phase consisting of 0.1% formic acid in acetonitrile (A) and 0.1% formic acid in water (B) was eluted as follows: 0–1 min, A, 15–20%; 1–5 min, A, 20–25%; 5–7 min, A, 25–95%; 7–10 min, A held at 95% and returned to the initial condition (acetonitrile-water ratio 15 : 85) for a 3 min equilibration. The temperature of the auto-sampler was kept at 4°C.
All the data were processed using Agilent MassHunter Workstation Software Quantitative Analysis Version B.07.00/Build 7.0.457.0 (Agilent).
Kinetic parameters were calculated using the WinNonlin software (Version 4.0, Pharsight Corp, Mountain View, CA, US) employing a noncompartmental model approach. Epimerization ratio was calculated by AUC(generated stereoisomer)/(AUC(generated stereoisomer) + AUC(administered stereoisomer)) × 100%. The brain-to-plasma partition coefficient (Kp, Brain) was calculated by AUCBrain/AUCPlasma, and the CSF-to-plasma partition coefficient (Kp, CSF) was calculated by AUCCSF/AUCPlasma.
All the data in the study were expressed as mean ± SEM. Statistical analyses were performed using GraphPad Prism 6.0 (GraphPad Software Inc, San Diego, CA, US) using two tailed unpaired t-test for two groups comparison. Statistical significance was set at p value less than 0.05.

APP/PS1 transgenic mice = tested on: APP/PS1 transgenic mice; set-up: method as in PMID 24958880; conditions: oral 50 mg/kg/day for 3-4 weeks; cited from earlier work
P-gp efflux transporter = conditions: cited from earlier work
HT22 cell = conditions: cited from earlier work
EphA4 = tested on: EphA4; set-up: method as in PMID 24958880; conditions: cited from earlier work
[3] = set-up: method as in earlier work; conditions: cited from earlier work
[4] = tested on: rats with Aβ25-35-induced cognitive deficits; conditions: oral 20 or 40 mg/kg for 3 weeks; cited from earlier work
[5] = mainly mediated by CYP3A4; cited from earlier work
[6] = administered stereoisomer, 20 mg/kg p.o., rat CSF
[7] = administered stereoisomer, 20 mg/kg p.o.
[8] = generated stereoisomer after 20 mg/kg p.o. of the other stereoisomer
[9] = administered stereoisomer, 20 mg/kg p.o. of the same compound, rat plasma, mean ± SEM, read-out: AUC0-180 min, plasma (converted)
[10] = administered stereoisomer, 20 mg/kg p.o., rat CSF, read-out: AUC0-180 min, CSF (converted)
[11] = administered stereoisomer, 20 mg/kg p.o., rat plasma
[12] = CSF (relative to plasma), administered stereoisomer, 20 mg/kg p.o., AUCCSF/AUCPlasma, read-out: Kp,CSF (CSF-to-plasma partition coefficient)
[13] = brain (relative to plasma), administered stereoisomer, 20 mg/kg p.o., AUCBrain/AUCPlasma, read-out: Kp,Brain (brain-to-plasma partition coefficient)
[14] = 20 mg/kg, administered stereoisomer, 20 mg/kg p.o., rat plasma

Row | SMILES | Bioavailability [1] | Cmax, CSF [2, 6] | Cmax, brain [2, 7] | AUC0-180 min, brain [2, 8] | AUC(0-t) [2, 9] | AUC(0-t) [2, 10] | Cmax [2, 11] | half-life [2, 11] | Kp [2, 12] | Kp [2, 13] | Tmax [2, 14] | Neuroprotective activity against glutamate-induced HT22 cell injury (HT22 cell) | Inhibition of EphA4 (EphA4) | pKa [3] | further results
1 | CC[C@H]1CN2CC[C@]3(C(=O)Nc4ccccc43)[C@@H]2C[C@@H]1/C(=C\OC)C(=O)OC [RN, rhynchophylline] | 25.9 ± 8.7% | 7.39 ± 0.17^∗∗∗ ng/mL | 16.96 ± 1.92^∗∗ ng/g | 296.63 ± 9.49^∗∗ ng·min/g | 0.273 µg·h/mL | 0.0124 µg·h/mL | 0.191 ± 0.00634 µg/mL | 2.16 ± 0.155 h | 0.0453 ± 0.0002 | 0.0967 ± 0.0063 | ≤ 0.5 h | weak effect | potent inhibitor | 6.32 | AUC0-180 min, brain ([2]; administered stereoisomer, 20 mg/kg p.o., 20 mg/kg): 1587.03 ± 127.82 ng·min/g and 1587.03 ± 127.82^∗∗ ng·min/g; Long-term potentiation in the hippocampus (APP/PS1 transgenic mice): restored the impaired long-term potentiation; Membrane permeability, effect of P-gp efflux (P-gp efflux transporter): affected by P-gp efflux transporter
2 | CC[C@H]1CN2CC[C@@]3(C(=O)Nc4ccccc43)[C@@H]2C[C@@H]1/C(=C\OC)C(=O)OC [IRN, Isorhynchophylline] | 3.3 ± 0.8% | 2.14 ± 0.34 ng/mL | 7.35 ± 0.74 ng/g | 140.76 ± 1.50 ng·min/g | 0.0414 µg·h/mL | 0.0034 µg·h/mL | 0.0313 ± 0.00159 µg/mL | 1.07 ± 0.0532 h | 0.0821 ± 0.005 | 0.253 ± 0.0187 | ≤ 0.5 h | significant neuroprotective activity | not | 5.20 | AUC0-180 min, brain [2, 7]: 627.37 ± 43.31 ng·min/g; Administered IRN metabolically converted to RN ([2]; after oral administration of IRN 20 mg/kg, rats): at least 47%; Cognitive deficits induced by Aβ25-35 [4]: ameliorated cognitive deficits; Metabolism in rat liver microsomes [5]: much more favorable to be metabolized than RN
